From ChEMBL document CHEMBL4507268 (2021)

Legend:
[1] = target: CDK12/Cyclin K (Homo sapiens) (UniProt O75909+Q9NYV4); conditions: Compound concentration 1.0 uM
[2] = target: Protein kinase C beta type (Homo sapiens) (UniProt P05771); conditions: Compound concentration 1.0 uM
[3] = target: T1, Myosin light chain kinase (Homo sapiens) (UniProt Q32MK0); conditions: Compound concentration 1.0 uM
T1 sequence (whole entry): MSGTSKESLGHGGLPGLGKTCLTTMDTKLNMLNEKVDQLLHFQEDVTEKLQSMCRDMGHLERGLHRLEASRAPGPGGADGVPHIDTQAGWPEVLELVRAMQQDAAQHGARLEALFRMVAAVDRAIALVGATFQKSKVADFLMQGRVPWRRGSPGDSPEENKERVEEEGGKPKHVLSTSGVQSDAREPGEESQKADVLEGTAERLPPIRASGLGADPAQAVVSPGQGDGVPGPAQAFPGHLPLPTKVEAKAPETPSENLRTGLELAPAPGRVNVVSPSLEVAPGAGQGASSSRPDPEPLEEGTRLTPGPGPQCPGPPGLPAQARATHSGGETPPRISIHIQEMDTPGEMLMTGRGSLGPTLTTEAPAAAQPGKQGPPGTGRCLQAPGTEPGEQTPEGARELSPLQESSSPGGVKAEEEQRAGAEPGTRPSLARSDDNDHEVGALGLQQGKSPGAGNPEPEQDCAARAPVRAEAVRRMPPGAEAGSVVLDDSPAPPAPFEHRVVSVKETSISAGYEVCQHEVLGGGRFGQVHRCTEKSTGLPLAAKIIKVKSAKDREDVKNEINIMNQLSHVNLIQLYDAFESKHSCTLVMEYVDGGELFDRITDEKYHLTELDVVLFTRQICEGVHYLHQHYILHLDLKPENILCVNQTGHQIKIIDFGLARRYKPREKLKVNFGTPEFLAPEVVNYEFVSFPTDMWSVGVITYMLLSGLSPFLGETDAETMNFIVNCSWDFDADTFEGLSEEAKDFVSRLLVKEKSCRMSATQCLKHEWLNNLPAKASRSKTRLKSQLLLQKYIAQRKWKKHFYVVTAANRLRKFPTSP

[4] = target: 5-hydroxytryptamine receptor 2C (Homo sapiens) (UniProt P28335); conditions: Compound concentration 10.0 uM
[5] = target: PI3-kinase p110-delta/p85-alpha (Homo sapiens) (UniProt P27986+O00329); conditions: Compound concentration 1.0 uM
[6] = target: Insulin receptor-related protein (Homo sapiens) (UniProt P14616); conditions: Compound concentration 1.0 uM
[7] = target: Serine/threonine-protein kinase 32C (Homo sapiens) (UniProt Q86UX6); conditions: Compound concentration 1.0 uM
[8] = target: Protein-tyrosine kinase 6 (Homo sapiens) (UniProt Q13882); conditions: Compound concentration 1.0 uM
[9] = target: Epidermal growth factor receptor (Homo sapiens) (UniProt P00533); conditions: Compound concentration 1.0 uM
[10] = target: Serine/threonine-protein kinase VRK1 (Homo sapiens) (UniProt Q99986); conditions: Compound concentration 1.0 uM
[11] = target: T2, Ephrin type-B receptor 2 (Homo sapiens) (UniProt P29323); conditions: Compound concentration 1.0 uM
T2 sequence (whole entry): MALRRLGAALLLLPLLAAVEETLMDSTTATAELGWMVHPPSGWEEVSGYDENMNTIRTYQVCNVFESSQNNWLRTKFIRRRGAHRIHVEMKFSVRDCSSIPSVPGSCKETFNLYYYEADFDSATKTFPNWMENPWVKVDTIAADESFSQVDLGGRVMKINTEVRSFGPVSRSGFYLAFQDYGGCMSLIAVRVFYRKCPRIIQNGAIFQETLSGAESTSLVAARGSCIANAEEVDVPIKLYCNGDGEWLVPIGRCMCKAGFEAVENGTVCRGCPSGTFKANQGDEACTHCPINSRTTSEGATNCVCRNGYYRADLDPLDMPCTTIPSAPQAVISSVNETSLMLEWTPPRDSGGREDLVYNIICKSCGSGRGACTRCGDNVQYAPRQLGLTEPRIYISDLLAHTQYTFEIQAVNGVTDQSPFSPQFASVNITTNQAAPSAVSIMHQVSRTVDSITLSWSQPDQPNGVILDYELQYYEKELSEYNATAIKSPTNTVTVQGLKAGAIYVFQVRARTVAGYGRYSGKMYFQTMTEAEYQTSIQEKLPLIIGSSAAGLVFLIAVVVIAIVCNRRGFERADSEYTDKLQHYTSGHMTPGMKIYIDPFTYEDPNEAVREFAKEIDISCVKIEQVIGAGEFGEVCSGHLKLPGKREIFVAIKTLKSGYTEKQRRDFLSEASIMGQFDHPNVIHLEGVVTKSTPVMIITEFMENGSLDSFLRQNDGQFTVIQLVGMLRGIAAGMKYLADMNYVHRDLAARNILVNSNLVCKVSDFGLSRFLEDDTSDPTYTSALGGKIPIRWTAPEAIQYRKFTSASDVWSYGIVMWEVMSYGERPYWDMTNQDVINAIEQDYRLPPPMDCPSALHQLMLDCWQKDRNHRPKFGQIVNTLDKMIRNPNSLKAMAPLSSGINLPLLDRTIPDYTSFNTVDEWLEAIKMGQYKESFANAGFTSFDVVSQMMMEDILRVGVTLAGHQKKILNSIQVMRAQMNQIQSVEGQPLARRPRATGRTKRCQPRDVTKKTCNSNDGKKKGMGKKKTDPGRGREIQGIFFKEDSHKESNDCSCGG

Sequence of CDK12/Cyclin K (Homo sapiens) (O75909 whole entry, looked up): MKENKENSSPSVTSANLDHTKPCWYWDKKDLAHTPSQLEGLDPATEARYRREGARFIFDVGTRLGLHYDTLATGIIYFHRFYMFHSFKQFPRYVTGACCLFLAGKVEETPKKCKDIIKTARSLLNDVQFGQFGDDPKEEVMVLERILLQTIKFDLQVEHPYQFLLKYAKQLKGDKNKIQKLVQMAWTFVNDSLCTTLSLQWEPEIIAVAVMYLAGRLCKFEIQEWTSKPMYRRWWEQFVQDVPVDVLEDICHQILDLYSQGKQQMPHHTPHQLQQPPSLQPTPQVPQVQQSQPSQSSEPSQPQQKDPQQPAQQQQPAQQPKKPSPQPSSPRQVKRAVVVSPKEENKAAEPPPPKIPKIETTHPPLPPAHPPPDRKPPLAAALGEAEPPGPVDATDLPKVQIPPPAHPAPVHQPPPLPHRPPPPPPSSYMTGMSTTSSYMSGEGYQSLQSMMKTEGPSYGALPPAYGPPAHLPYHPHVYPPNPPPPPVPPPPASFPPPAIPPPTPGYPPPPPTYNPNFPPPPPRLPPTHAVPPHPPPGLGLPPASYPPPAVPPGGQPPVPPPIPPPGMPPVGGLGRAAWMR
Sequence of CDK12/Cyclin K (Homo sapiens) (Q9NYV4 whole entry, looked up): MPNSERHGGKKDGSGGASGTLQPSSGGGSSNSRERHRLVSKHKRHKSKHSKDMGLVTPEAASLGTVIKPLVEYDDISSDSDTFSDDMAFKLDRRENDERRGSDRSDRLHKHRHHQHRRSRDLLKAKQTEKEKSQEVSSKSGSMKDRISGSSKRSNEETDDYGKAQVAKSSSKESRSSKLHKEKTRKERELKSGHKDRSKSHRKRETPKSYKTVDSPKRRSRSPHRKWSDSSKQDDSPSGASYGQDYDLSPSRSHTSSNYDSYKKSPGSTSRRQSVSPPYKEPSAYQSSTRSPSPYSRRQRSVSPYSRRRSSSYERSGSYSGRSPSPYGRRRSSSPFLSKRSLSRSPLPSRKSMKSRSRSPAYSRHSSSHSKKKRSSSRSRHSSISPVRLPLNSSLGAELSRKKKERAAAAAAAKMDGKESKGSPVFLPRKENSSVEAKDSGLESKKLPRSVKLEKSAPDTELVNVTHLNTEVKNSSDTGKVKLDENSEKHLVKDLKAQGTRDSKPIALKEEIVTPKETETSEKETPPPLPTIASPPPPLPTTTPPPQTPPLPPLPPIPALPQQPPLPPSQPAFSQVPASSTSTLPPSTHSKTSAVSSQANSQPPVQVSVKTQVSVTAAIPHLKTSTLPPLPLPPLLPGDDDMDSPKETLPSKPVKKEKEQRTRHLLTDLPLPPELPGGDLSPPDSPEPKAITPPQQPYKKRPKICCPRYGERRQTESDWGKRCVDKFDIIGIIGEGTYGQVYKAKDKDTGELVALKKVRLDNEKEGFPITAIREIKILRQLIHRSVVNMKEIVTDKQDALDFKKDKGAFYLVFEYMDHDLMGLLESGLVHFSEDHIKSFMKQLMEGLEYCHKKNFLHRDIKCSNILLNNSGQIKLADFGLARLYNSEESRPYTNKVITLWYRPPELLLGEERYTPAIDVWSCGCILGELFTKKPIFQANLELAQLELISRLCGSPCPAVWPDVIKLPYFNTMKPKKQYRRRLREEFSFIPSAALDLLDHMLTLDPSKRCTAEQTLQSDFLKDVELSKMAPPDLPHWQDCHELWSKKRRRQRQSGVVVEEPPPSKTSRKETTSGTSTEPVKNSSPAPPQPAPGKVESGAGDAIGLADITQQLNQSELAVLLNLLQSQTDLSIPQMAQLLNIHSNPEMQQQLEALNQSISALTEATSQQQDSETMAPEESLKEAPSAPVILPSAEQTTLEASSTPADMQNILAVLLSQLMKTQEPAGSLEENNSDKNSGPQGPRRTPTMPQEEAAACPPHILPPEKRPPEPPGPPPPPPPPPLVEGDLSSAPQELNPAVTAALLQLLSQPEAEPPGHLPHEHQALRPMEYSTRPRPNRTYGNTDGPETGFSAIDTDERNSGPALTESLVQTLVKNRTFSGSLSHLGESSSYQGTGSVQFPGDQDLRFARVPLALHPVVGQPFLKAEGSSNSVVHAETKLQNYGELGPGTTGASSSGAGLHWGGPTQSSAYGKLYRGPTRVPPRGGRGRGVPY
Sequence of Serine/threonine-protein kinase 32C (Homo sapiens) (Q86UX6 whole entry): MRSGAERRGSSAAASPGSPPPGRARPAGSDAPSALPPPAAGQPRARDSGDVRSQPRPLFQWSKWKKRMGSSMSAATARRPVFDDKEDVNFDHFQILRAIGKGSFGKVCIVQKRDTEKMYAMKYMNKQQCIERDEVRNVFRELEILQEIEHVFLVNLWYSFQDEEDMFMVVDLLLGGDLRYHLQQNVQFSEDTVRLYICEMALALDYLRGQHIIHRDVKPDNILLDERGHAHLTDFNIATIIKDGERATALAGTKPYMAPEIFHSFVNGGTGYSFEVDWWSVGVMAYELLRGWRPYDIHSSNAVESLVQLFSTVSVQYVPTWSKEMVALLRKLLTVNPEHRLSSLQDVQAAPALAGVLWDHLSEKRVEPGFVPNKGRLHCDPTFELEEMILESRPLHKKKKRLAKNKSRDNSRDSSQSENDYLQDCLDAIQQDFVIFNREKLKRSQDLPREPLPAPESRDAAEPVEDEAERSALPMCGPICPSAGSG
Sequence of Insulin receptor-related protein (Homo sapiens) (P14616 27-742 limits assumed): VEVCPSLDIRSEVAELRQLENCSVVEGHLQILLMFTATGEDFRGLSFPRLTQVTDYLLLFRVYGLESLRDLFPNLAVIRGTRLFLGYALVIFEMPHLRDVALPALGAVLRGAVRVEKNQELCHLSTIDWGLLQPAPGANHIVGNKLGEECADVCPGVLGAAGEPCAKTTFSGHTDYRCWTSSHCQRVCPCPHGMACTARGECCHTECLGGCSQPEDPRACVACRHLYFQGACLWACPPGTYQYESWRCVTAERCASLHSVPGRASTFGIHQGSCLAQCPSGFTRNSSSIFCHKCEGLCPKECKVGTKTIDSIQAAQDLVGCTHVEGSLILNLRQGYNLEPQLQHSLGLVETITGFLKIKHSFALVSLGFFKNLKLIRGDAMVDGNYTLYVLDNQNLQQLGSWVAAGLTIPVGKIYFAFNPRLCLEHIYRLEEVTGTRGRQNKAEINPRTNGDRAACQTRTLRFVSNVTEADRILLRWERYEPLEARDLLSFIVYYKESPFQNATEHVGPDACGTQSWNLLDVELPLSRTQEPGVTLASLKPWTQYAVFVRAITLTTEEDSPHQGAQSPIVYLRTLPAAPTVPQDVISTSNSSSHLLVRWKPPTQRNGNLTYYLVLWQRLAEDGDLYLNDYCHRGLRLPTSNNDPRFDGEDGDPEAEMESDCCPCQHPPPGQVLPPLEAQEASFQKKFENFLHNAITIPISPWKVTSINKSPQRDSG
Sequence of Insulin receptor-related protein (Homo sapiens) (P14616 747-1297 limits assumed): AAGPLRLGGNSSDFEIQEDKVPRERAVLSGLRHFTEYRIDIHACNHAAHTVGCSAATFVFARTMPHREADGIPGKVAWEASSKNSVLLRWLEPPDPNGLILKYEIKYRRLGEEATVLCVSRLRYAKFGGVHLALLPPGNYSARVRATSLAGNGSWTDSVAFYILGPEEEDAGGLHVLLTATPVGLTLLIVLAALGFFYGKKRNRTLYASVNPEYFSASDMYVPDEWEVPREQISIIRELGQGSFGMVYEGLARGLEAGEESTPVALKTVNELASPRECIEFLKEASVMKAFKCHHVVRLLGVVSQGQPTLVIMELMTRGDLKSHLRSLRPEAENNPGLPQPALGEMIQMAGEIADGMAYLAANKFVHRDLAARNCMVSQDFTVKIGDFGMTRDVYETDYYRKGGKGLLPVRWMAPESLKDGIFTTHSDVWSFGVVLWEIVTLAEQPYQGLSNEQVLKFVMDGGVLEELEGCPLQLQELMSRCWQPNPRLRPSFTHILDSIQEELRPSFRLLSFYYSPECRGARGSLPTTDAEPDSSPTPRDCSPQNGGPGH
Sequence of Serine/threonine-protein kinase VRK1 (Homo sapiens) (Q99986 whole entry): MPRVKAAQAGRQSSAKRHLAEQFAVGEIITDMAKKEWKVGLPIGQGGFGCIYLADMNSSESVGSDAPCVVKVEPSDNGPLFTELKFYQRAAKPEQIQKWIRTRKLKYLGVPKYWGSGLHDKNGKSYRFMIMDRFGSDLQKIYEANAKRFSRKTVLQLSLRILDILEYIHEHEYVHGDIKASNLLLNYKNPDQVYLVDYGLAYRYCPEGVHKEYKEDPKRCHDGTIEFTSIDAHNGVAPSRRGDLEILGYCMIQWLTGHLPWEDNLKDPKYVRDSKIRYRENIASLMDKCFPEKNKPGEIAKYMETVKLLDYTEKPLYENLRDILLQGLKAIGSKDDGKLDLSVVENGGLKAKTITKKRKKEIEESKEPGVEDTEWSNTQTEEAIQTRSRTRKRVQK
Sequence of Protein-tyrosine kinase 6 (Homo sapiens) (Q13882 whole entry, looked up): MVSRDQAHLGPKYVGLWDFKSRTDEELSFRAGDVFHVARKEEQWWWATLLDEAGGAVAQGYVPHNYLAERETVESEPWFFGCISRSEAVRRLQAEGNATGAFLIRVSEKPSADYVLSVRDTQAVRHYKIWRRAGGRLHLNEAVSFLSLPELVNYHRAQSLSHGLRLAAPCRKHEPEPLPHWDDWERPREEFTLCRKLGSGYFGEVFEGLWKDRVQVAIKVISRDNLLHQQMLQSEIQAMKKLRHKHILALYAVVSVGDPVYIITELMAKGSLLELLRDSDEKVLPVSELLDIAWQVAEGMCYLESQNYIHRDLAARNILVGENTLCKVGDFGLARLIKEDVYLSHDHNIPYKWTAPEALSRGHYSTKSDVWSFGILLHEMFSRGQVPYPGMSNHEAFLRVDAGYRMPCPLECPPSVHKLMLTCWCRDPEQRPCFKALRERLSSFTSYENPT

CN1CCN(c2cnc3c(C4CCN(C(=O)c5ccc(OC(F)(F)F)cc5N)CC4)ncnc3c2)CC1 [BAY-885]
inactive: % residual kinase activity [1] 94% | % residual kinase activity [2] 110% | % residual kinase activity [3] 107% | inhibition [4] -4.77% | % residual kinase activity [5] 102% | % residual kinase activity [6] 111% | % residual kinase activity [7] 103% | % residual kinase activity [8] 108% | % residual kinase activity [9] 105% | % residual kinase activity [10] 100% | % residual kinase activity [11] 93%
